Laboratory results reported in patent US20200345746A1, “Oxazine Derivative for Use in the Prevention of Alzheimer's Disease in at Risk Patents” (Novartis AG, priority 2016, published 2020).
Marks after values point to notes of the source that are not given here.

Experiments:
C57BL/6 mice = assay: Fur colour scoring, chronic 8-week dosing in wild-type mice; assay type: in vivo, mouse
Method: (§1) Compound 1 and NB-360 were formulated as a suspension. […] Vehicle: […] in 0.5% methylcellulose in water.
(§2) Body weight was taken 3 times per week (Monday, Wednesday, Friday). Subjective scoring of any hair colour changes was performed once weekly (Wednesday). Scores (% of body with grey fur): 0: No change; 1: Spots; 2: >30%; 3: >50%; 4: >75%; 5: 100%. Animals were photo-documented when fur color change was observed. Final fur color scoring was performed blinded and by a person not involved in the study.

[1] = Body weight, chronic 8-week dosing in wild-type mice; assay type: in vivo, mouse; details: C57BL/6 mice, 8 weeks chronic treatment
Method: as §1, §2

[2] = Compound levels in blood, brain and skin of C57BL/6 mice (HPLC/MS/MS); details: for AUCbrain (AUC0-24 h) / AUCventral skin (AUC0-24 h) / AUCdorsal skin (AUC0-24 h) / AUC(0-t): day 56; for AUCbrain (AUC0-24 h) / AUCventral skin (AUC0-24 h) / AUCdorsal skin (AUC0-24 h): from 4 and 24 h; for AUC(0-t): whole blood, po, AUCblood (AUC0-24 h)

fur discoloration reached a plateau after (C57BL/6 mice): 5 weeks
fur colour change (C57BL/6 mice; 20 μmol/kg p.o. once daily, 8 weeks): slight but significant fur score change
appearance of grey patches apparent after (C57BL/6 mice; high and low dose group): 3 weeks
AUCbrain (AUC0-24 h) ([2]; C57BL/6, 20 μmol/kg q.d.): 16.39 µmol·h/kg
AUCventral skin (AUC0-24 h) ([2]; C57BL/6, 20 μmol/kg q.d.): 104.81 µmol·h/kg
AUCdorsal skin (AUC0-24 h) ([2]; C57BL/6, 20 μmol/kg q.d., n = 2 for 24 h): 46.9^c μmol/kg · h
AUCbrain (AUC0-24 h) ([2]; C57BL/6, 100 μmol/kg q.d.): 114.45 µmol·h/kg
AUCdorsal skin (AUC0-24 h) ([2]; C57BL/6, 100 μmol/kg q.d.): 294 µmol·h/kg
AUCventral skin (AUC0-24 h) ([2]; C57BL/6, 100 μmol/kg q.d.): 712.16 µmol·h/kg
Kp ([2]; C57BL/6, mouse, brain / whole blood, oral): 2.8
AUC(0-t) ([2]; C57BL/6, mouse, 20 umol/kg, C57BL/6, 20 μmol/kg q.d., from 1, 4, 7, 24 h time points): 6.93 µM·h
AUC(0-t) ([2]; C57BL/6, mouse, 20 umol/kg, C57BL/6, 20 μmol/kg q.d., from 4 and 24 h time points): 5.6 µM·h
AUC(0-t) ([2]; C57BL/6, mouse, 100 umol/kg, C57BL/6, 100 μmol/kg q.d., from 1, 4, 7, 24 h time points): 35.9 µM·h
AUC(0-t) ([2]; C57BL/6, mouse, 100 umol/kg, C57BL/6, 100 μmol/kg q.d., from 4 and 24 h time points): 25.3 µM·h
SMILES: Cc1cc(C#N)cnc1C(=O)Nc1ccc(F)c([C@]2(C)CO[C@@](C)(C(F)(F)F)C(N)=N2)c1 [NB-360, N-(3-((3R,6R)-5-amino-3,6-dimethyl-6-(trifluoromethyl)-3,6-dihydro-2H-1,4-oxazin-3-yl)-4-fluorophenyl)-5-cyano-3-methylpicolinamide]
fur colour change (C57BL/6 mice; 100 μmol/kg p.o. once daily, 8 weeks): more severe and profound fur color change
fur discoloration (C57BL/6 mice; 20 and 100 μmol/kg groups, 8 weeks): All animals in the NB-360 group showed fur discoloration
body weight difference compared to vehicle [1]: No overall significant body weight difference
